Tested on: subjects with mIDH1 advanced AML
Assay: Phase I study: safety and tolerability (TEAE, DLT, MTD, ECG)
Type: in vivo
Procedure: This study was an open-label, nonrandomized, multicenter phase I trial. Subjects were screened at 13 hospital sites in 2 countries (USA and Germany). The study was to consist of dose-escalation followed by dose-expansion. The MTD identified in dose-escalation was to be used in the dose-expansion. If MTD was not reached in dose-escalation, a dose for the expansion would be selected based on available PK, pharmacodynamic, safety, and efficacy data. BAY1436032 was administered twice-daily (BID) in continuous 28-day cycles. In dose-escalation, up to 9 evaluable subjects could be enrolled per cohort, with a minimum of 3 dose-limiting toxicity (DLT)-free evaluable subjects required prior to escalating to the next highest dose. Bayesian dose-DLT modeling was performed to help guide dosing decisions.
DLTs were differentially defined for nonhematopoietic versus hematopoietic toxicities. Nonhematopoietic toxicities of ≥grade 3 occurring during the first cycle of treatment were to be considered DLTs with the following exceptions: (1) Alopecia and nausea controlled by medical management; (2) Tumor lysis syndrome if successfully managed clinically and resolved within 7 days without any end-organ damage; (3) Differentiation syndrome (DS) if successfully managed clinically and resolved within 7 days without any end-organ damage; (4) Asymptomatic ≥grade 3 electrolyte abnormalities not considered clinically significant by the investigator. […] For certain toxicities such as laboratory assessments without a clear clinical correlate, a discussion between the investigator and the sponsor determined whether the adverse event (AE) should be assessed as a DLT.
DLTs identified during the first cycle of treatment were used to guide dose-escalation decisions and to determine the MTD, and if safety issues appeared in subsequent cycles they were also to be considered. Hydroxyurea was permitted during the first cycle if white blood cell (WBC) exceeded 20 × 10^9/L and was also permitted for treatment of DS.
Safety and tolerability were evaluated by analysis of adverse events, physical examinations, vital signs, ECOG performance status, and various laboratory assessments. For safety monitoring, subjects were scheduled for clinic visits every week for the initial three cycles of treatment, after which time visits could be reduced to every-other-week with investigator and sponsor agreement. Cardiac function was assessed with triplicate 12-lead electrocardiograms (ECG) at screening, C1-D1, C1-D2, C1-D15, D1 of every subsequent cycle, and at treatment end. […] AEs are presented by the Medical Dictionary for Regulatory Activities (MedDRA) v21.1.

SMILES: C[C@H]1C[C@@H](n2c(Nc3ccc(OC(F)(F)F)cc3)nc3cc(CCC(=O)O)ccc32)CC(C)(C)C1 [BAY1436032]
- TEAE Hypokalaemia Grade 1 (1200 mg BID, n=7): 1
- TEAE Hypokalaemia Grade 2 (1200 mg BID, n=7): 0
- TEAE Hypokalaemia Grade 3 (1200 mg BID, n=7): 0
- TEAE Hyponatraemia Grade 1 (1200 mg BID, n=7): 0
- TEAE Hyponatraemia Grade 3 (1200 mg BID, n=7): 0
- TEAE Hypophosphataemia Grade 1 (1200 mg BID, n=7): 0
- TEAE Hypophosphataemia Grade 2 (1200 mg BID, n=7): 0
- TEAE Leukocytosis Grade 2 (1200 mg BID, n=7): 1
- TEAE Leukocytosis Grade 3 (1200 mg BID, n=7): 0
- TEAE Lung infection Grade 3 (1200 mg BID, n=7): 1
- TEAE Lung infection Grade 5 (1200 mg BID, n=7): 0
- TEAE Nausea Grade 1 (1200 mg BID, n=7): 2
- TEAE Nausea Grade 2 (1200 mg BID, n=7): 0
- TEAE Nausea Grade 3 (1200 mg BID, n=7): 0
- TEAE Oedema peripheral Grade 1 (1200 mg BID, n=7): 2
- TEAE Oedema peripheral Grade 3 (1200 mg BID, n=7): 0
- TEAE Pain in extremity Grade 1 (1200 mg BID, n=7): 1
- TEAE Pain in extremity Grade 2 (1200 mg BID, n=7): 0
- TEAE Pneumonia Grade 1 (1200 mg BID, n=7): 0
- TEAE Pneumonia Grade 2 (1200 mg BID, n=7): 1
- TEAE Pneumonia Grade 3 (1200 mg BID, n=7): 1
- TEAE Pneumonia fungal Grade 2 (1200 mg BID, n=7): 0
- TEAE Pneumonia fungal Grade 3 (1200 mg BID, n=7): 0
- TEAE Pneumonia fungal Grade 4 (1200 mg BID, n=7): 0
- TEAE Productive cough Grade 1 (1200 mg BID, n=7): 1
- TEAE Productive cough Grade 2 (1200 mg BID, n=7): 0
- TEAE Pyrexia Grade 1 (1200 mg BID, n=7): 1
- TEAE Pyrexia Grade 2 (1200 mg BID, n=7): 0
- TEAE Pyrexia Grade 3 (1200 mg BID, n=7): 0
- TEAE Rash Grade 1 (1200 mg BID, n=7): 1
- TEAE Rash Grade 2 (1200 mg BID, n=7): 0
- TEAE Sepsis Grade 4 (1200 mg BID, n=7): 0
- TEAE Sepsis Grade 5 (1200 mg BID, n=7): 0
- TEAE Sinus tachycardia Grade 1 (1200 mg BID, n=7): 0
- TEAE Thrombocytopenia Grade 4 (1200 mg BID, n=7): 1
- TEAE Vomiting Grade 1 (1200 mg BID, n=7): 0
- TEAE Weight decreased Grade 1 (1200 mg BID, n=7): 1
- TEAE Weight decreased Grade 2 (1200 mg BID, n=7): 2
- TEAE Weight decreased Grade 3 (1200 mg BID, n=7): 0
- Related TEAE Decreased appetite Grade 1 (1500 mg BID, n=9): 0
- Related TEAE Decreased appetite Grade 2 (1500 mg BID, n=9): 0
- Related TEAE Diarrhea Grade 2 (1500 mg BID, n=9): 0
- Related TEAE Differentiation syndrome Grade 2 (1500 mg BID, n=9): 1
- Related TEAE Differentiation syndrome Grade 3 (1500 mg BID, n=9): 0
- Related TEAE Dyspnea Grade 1 (1500 mg BID, n=9): 0
- Related TEAE Dyspnea Grade 2 (1500 mg BID, n=9): 0
- Related TEAE Fatigue Grade 1 (1500 mg BID, n=9): 0
- Related TEAE Fatigue Grade 2 (1500 mg BID, n=9): 0
- Related TEAE Fatigue Grade 3 (1500 mg BID, n=9): 1
- Related TEAE Hypomagnesaemia Grade 1 (1500 mg BID, n=9): 1
- Related TEAE Nausea Grade 1 (1500 mg BID, n=9): 1
- Related TEAE Nausea Grade 2 (1500 mg BID, n=9): 0
- Related TEAE Sinus tachycardia Grade 1 (1500 mg BID, n=9): 1
- Related TEAE Vomiting Grade 1 (1500 mg BID, n=9): 1
- TEAE Abdominal pain upper Grade 1 (1500 mg BID, n=9): 2
- TEAE Abdominal pain upper Grade 2 (1500 mg BID, n=9): 1
- TEAE Acute kidney injury Grade 1 (1500 mg BID, n=9): 0
- TEAE Acute kidney injury Grade 2 (1500 mg BID, n=9): 0
- TEAE Acute kidney injury Grade 3 (1500 mg BID, n=9): 0
- TEAE Anaemia Grade 3 (1500 mg BID, n=9): 0
- TEAE Anaemia Grade 4 (1500 mg BID, n=9): 0
- TEAE Anxiety Grade 1 (1500 mg BID, n=9): 0
- TEAE Anxiety Grade 2 (1500 mg BID, n=9): 1
- TEAE Arthralgia Grade 1 (1500 mg BID, n=9): 1
- TEAE Arthralgia Grade 2 (1500 mg BID, n=9): 1
- TEAE Constipation Grade 1 (1500 mg BID, n=9): 3
- TEAE Constipation Grade 2 (1500 mg BID, n=9): 0
- TEAE Contusion Grade 1 (1500 mg BID, n=9): 1
- TEAE Contusion Grade 2 (1500 mg BID, n=9): 1
- TEAE Cough Grade 1 (1500 mg BID, n=9): 0
- TEAE Cough Grade 2 (1500 mg BID, n=9): 1
- TEAE Decreased appetite Grade 1 (1500 mg BID, n=9): 2
- TEAE Decreased appetite Grade 2 (1500 mg BID, n=9): 1
- TEAE Decreased appetite Grade 3 (1500 mg BID, n=9): 1
- TEAE Diarrhea Grade 1 (1500 mg BID, n=9): 2
- TEAE Diarrhea Grade 2 (1500 mg BID, n=9): 1
- TEAE Dry skin Grade 1 (1500 mg BID, n=9): 1
- TEAE Dyspnoea Grade 1 (1500 mg BID, n=9): 1
- TEAE Dyspnoea Grade 2 (1500 mg BID, n=9): 0
- TEAE Dyspnoea Grade 3 (1500 mg BID, n=9): 1
- TEAE Epistaxis Grade 1 (1500 mg BID, n=9): 2
- TEAE Epistaxis Grade 2 (1500 mg BID, n=9): 0
- TEAE Epistaxis Grade 3 (1500 mg BID, n=9): 0
- TEAE Fall Grade 1 (1500 mg BID, n=9): 2
- TEAE Fatigue Grade 1 (1500 mg BID, n=9): 1
- TEAE Fatigue Grade 2 (1500 mg BID, n=9): 1
- TEAE Fatigue Grade 3 (1500 mg BID, n=9): 2
- TEAE Febrile neutropenia Grade 3 (1500 mg BID, n=9): 2
- TEAE General physical health deterioration Grade 3 (1500 mg BID, n=9): 2
- TEAE General physical health deterioration Grade 5 (1500 mg BID, n=9): 1
- TEAE Gingivitis Grade 1 (1500 mg BID, n=9): 0
- TEAE Haematuria Grade 1 (1500 mg BID, n=9): 0
- TEAE Haematuria Grade 2 (1500 mg BID, n=9): 0
- TEAE Haematuria Grade 3 (1500 mg BID, n=9): 1
- TEAE Headache Grade 1 (1500 mg BID, n=9): 0
- TEAE Headache Grade 2 (1500 mg BID, n=9): 0
- TEAE Headache Grade 3 (1500 mg BID, n=9): 1
- TEAE Hyperkalaemia Grade 1 (1500 mg BID, n=9): 0
- TEAE Hyperkalaemia Grade 4 (1500 mg BID, n=9): 0
- TEAE Hypertension Grade 2 (1500 mg BID, n=9): 2
- TEAE Hypertension Grade 3 (1500 mg BID, n=9): 0
- TEAE Hyperuricaemia Grade 1 (1500 mg BID, n=9): 1
- TEAE Hyperuricaemia Grade 3 (1500 mg BID, n=9): 0
- TEAE Hypokalaemia Grade 1 (1500 mg BID, n=9): 0
- TEAE Hypokalaemia Grade 2 (1500 mg BID, n=9): 1
- TEAE Hypokalaemia Grade 3 (1500 mg BID, n=9): 1
- TEAE Hyponatraemia Grade 1 (1500 mg BID, n=9): 0
- TEAE Hyponatraemia Grade 3 (1500 mg BID, n=9): 1
- TEAE Hypophosphataemia Grade 1 (1500 mg BID, n=9): 1
- TEAE Hypophosphataemia Grade 2 (1500 mg BID, n=9): 1
- TEAE Leukocytosis Grade 2 (1500 mg BID, n=9): 0
- TEAE Leukocytosis Grade 3 (1500 mg BID, n=9): 1
- TEAE Lung infection Grade 3 (1500 mg BID, n=9): 0
- TEAE Lung infection Grade 5 (1500 mg BID, n=9): 0
- TEAE Nausea Grade 1 (1500 mg BID, n=9): 1
- TEAE Nausea Grade 2 (1500 mg BID, n=9): 1
- TEAE Nausea Grade 3 (1500 mg BID, n=9): 2
- TEAE Oedema peripheral Grade 1 (1500 mg BID, n=9): 0
- TEAE Oedema peripheral Grade 3 (1500 mg BID, n=9): 1
- TEAE Pain in extremity Grade 1 (1500 mg BID, n=9): 0
- TEAE Pain in extremity Grade 2 (1500 mg BID, n=9): 1
- TEAE Pneumonia Grade 1 (1500 mg BID, n=9): 1
- TEAE Pneumonia Grade 2 (1500 mg BID, n=9): 0
- TEAE Pneumonia Grade 3 (1500 mg BID, n=9): 1
- TEAE Pneumonia fungal Grade 2 (1500 mg BID, n=9): 1
- TEAE Pneumonia fungal Grade 3 (1500 mg BID, n=9): 1
- TEAE Pneumonia fungal Grade 4 (1500 mg BID, n=9): 1
- TEAE Productive cough Grade 1 (1500 mg BID, n=9): 0
- TEAE Productive cough Grade 2 (1500 mg BID, n=9): 1
- TEAE Pyrexia Grade 1 (1500 mg BID, n=9): 2
- TEAE Pyrexia Grade 2 (1500 mg BID, n=9): 0
- TEAE Pyrexia Grade 3 (1500 mg BID, n=9): 3
- TEAE Rash Grade 1 (1500 mg BID, n=9): 0
- TEAE Rash Grade 2 (1500 mg BID, n=9): 2
- TEAE Sepsis Grade 4 (1500 mg BID, n=9): 0

Source: paper PMC7584476, “Safety and efficacy of BAY1436032 in IDH1-mutant AML: phase I study results” (Leukemia, 2020)
